Format in all cases: cell-based
One series deals with L56Br-C1 cells. Description: Growth curves, L56Br-C1 breast cancer cells. The conditions noted are these: L56Br-C1, 10 µM. Here is the method:
(§1) METHODS (not described in main article)
(§2) The AsPC-1, BxPc-3, MIA PaCa-2, and PanC-1 pancreatic cancer cell lines were purchased from the American Type Culture Collection (ATCC) (Manassas, VA, USA). AsPC-1 and BxPc-3 cell lines were cultured in RPMI-1640 medium, and MIA PaCa-2 and PanC-1 in Dulbecco's Modified Eagle Medium (DMEM)/Ham's F12 medium mixture (1:1). The medium of all four pancreatic cancer cell lines was supplemented with 10 % fetal bovine serum (FBS), 100 U/ml penicillin, and 100 μg/ml streptomycin. The L56Br-C1 breast cancer cell line was established at Lund University (Lund, Sweden)1, and was cultured in RPMI-1640 medium supplemented with 10 % heat-inactivated FBS, 100 U/ml penicillin, 100 μg/ml streptomycin, 1 mM non-essential amino acids, and 10 µg/ml insulin. The MCF-10A normal-like breast cell line was obtained from ATCC and was cultured in the same medium mixture as L56Br-C1 with the addition of 20 ng/ml epidermal growth factor, 50 ng/ml cholera toxin, and 500 ng/ml hydrocortisone.
(§3) Fluorescence anisotropy assay
(§4) The affinity between inhibitor 1 and the carbohydrate recognition domain (CRD) of galectin-8C and between inhibitor 3 and the CRD of galectin-2, -4N, -4C, 8C, and -9C was determined using the fluorescence anisotropy assay described in the main article. Experimental conditions used for each galectin […]

A further series relates to JIMT-1 cells. The series can be described thus: Cell proliferation assay (growth curves), JIMT-1. Particulars: JIMT-1, 5 µM, up to 6 days. Here is the method:
JIMT-1 cells were seeded in 5 cm diameter Petri dishes at a density of 400 000 cells/Petri dish. […] The cells were harvested by trypsinization and the number of cells was determined by counting in a hemocytometer (each day for a total of 6 days).

The test system of the next series is MCF-10A cells. The series can be described thus: MTT assay, MCF-10A normal-like breast cell line. Particulars: 72 hours. Here is the method: (§5) The MTT (3-[4,5-dimethylthiazol-2-yl]−2,5-diphenyltetrazolium bromide) assays were performed as previously described. In brief, cells were seeded in 96-well plates (6000 cells/well for MCF-7 and HCC1937 and 5000 cells for JIMT-1 in 180 μl fully-supplemented medium as described under Cell culture). The cells were incubated for 24 hours before addition of galectin-3 inhibitors. The inhibitors were diluted in PBS from their respective stock solution in DMSO (see Galectin-3 inhibitors) and used at final concentrations ranging from 0.04 to 40 μM. DMSO was adjusted to make the final DMSO concentration 0.2% for all inhibitor concentrations, including the control sample (no inhibitor). After 72 hours of treatment, 20 μl of 5 mg/ml MTT solution (in PBS) was added to each well and incubation continued for 1 hour at 37 °C. […] Absorbance was monitored at 540 nm using a Labsystems iEMS Reader MF (Labsystems Oy, Helsinki, Finland) and the software DeltaSoft II v.4.14 (Biometallics Inc., Princeton, NJ, USA). […]
as §3
(§6) The affinity between inhibitor 1 and the carbohydrate recognition domain (CRD) of galectin-8C and between inhibitor 3 and the CRD of galectin-2, -4N, -4C, 8C, and -9C was determined using the fluorescence anisotropy assay described in the main article. […]

A further series concerns MIA PaCa-2 cells. Description: Growth curves, MIA PaCa-2. The conditions noted are these: MIA PaCa-2, 10 µM. The procedure: as §1, §2, §3, §4
For the next series, the system named is BxPc-3 cells. The series can be described thus: Growth curves, BxPc-3. Particulars: BxPc-3, 10 µM. Here is the method:
as §1, §2, §3, §4

The subject of series [1] is PanC-1 cells. Description: Growth curves, PanC-1. Particulars: PanC-1, 10 µM. The procedure:
as §1, §2, §3, §4

The test system of series [2] is PanC-1 cells. The series can be described thus: MTT assay, PanC-1 pancreatic cancer cells. The conditions noted are these: PanC-1, 72 hours. Here is the method:
as §5, §3, §6

The subject of a further series is AsPC-1 cells. Description: MTT assay, AsPC-1 pancreatic cancer cells. Particulars: AsPC-1, 72 hours. The procedure: as §5, §3, §6

As to `OC[C@H]1O[C@@H](S[C@@H]2O[C@H](CO)[C@H](O)[C@H](n3cc(-c4cccc(F)c4)nn3)[C@H]2O)[C@H](O)[C@@H](n2cc(-c3cccc(F)c3)nn2)[C@H]1O` [compound 1], the “cell proliferation (growth curves)” value in the series on L56Br-C1 cells was “no effect”; with JIMT-1 cells, “no effect on cell proliferation”; with MIA PaCa-2 cells it was “no effect”; in the series on BxPc-3 cells, “no effect”; in the series on PanC-1 cells [1], “no effect”. In addition, the “toxicity (MTT)” value in the series with MCF-10A cells, with PanC-1 cells [2] and in the series on AsPC-1 cells was “low toxicity” throughout.

Values taken from PMC6379368, “Extracellular and intracellular small-molecule galectin-3 inhibitors” (Scientific Reports, 2019).
